Experimental data taken from patent US4337252A, “1-Phenyl-4-morpholino-1-buten-3-01 derivatives, compositions and use” (Univablot, priority 1980, dated 1982).

Experiments:
[1] = Toxicity: LD50 in mice by the intraperitoneal route (log-probits method of Miller and Tainter); settings: mouse, in vivo
Protocol: The LD50 of the products was measured in mice by the intraperitoneal route according to the "log-probits" method of Miller and Tainter (Proc. Soc. Exptl. Biol. Med. 1944; 57, 261-264).

[2] = tested on: reserpine-induced blepharospasm; assay: Reserpine antagonism (blepharospasm); assay type: in vivo, Male, Swiss strain mice; settings: mice, IP, 1/10 of LD50, 30 min before reserpine 5 mg/kg IP; class symbols
Protocol: 3. Reserpine antagonism (blepharospasm) (Chen G., and Bohner B., (1961) J. Pharmacol. Exptl. Therap. 131, 179).
Reserpine administered to mice in a dosage of 5 mg/kg intraperitoneally subsequently causes the eyelids to drop more or less completely in the majority of the animals. The administration of certain products inhibits the blepharospasm produced by reserpine.
Male, Swiss strain mice are distributed into groups of 10 and each experiment comprises at least 3 groups:
a control group that receives only the solvent and reserpine
a group treated with a reference product: we chose imipramine
a treated group that receives the product being tested in a dosage of 1/10 of the LD50.
The products being tested are administered intraperitoneally 30 minutes before the intraperitoneal injection of reserpine in a dosage of 5 mg/kg, so as to study their activity as a function of time.
The degree of ptosis for each eye and for each animal is observed every 30 minutes for 4 to 5 hours, according to RUBIN's scoring system (RUBIN et al., J. Pharm. Exp. Therap. 1957, 120, 125-136). The activity of the product is determined by comparing the result obtained with the treated control group. The inhibition of blepharospasm is recorded from 0 to +++.

Structure (SMILES)	LD50 ([1]; mice, IP) [mg/kg]	Blepharospasm (inhibition of reserpine-induced blepharospasm) [2]	LD50 ([1]; ip) [mg/kg]
COc1ccc(C=CC(O)CN2CCOCC2)cc1 (stereo not drawn) [Example 1, 1-(p-methoxyphenyl)-4-morpholino-1-buten-3-ol]	500	+++ (inhibition >45%)	–
OC(C=Cc1ccc(Cl)cc1)CN1CCOCC1 (stereo not drawn) [Example 2]	–	+++ (inhibition >45%)	400
OC(C=Cc1ccc(F)cc1)CN1CCOCC1 (stereo not drawn) [Example 3]	–	++ (inhibition 26-45%)	800
Oc1ccc(C=CC(O)CN2CCOCC2)cc1 (stereo not drawn) [Example 4]	–	++ (inhibition 26-45%)	650
C#CCOc1ccc(C=CC(O)CN2CCOCC2)cc1 (stereo not drawn) [Example 5]	–	++ (inhibition 26-45%)	400
C=CCOc1ccc(C=CC(O)CN2CCOCC2)cc1 (stereo not drawn) [Example 6]	–	++ (inhibition 26-45%)	300
